Data reported in ChEMBL document CHEMBL4184132, “Chrodrimanins K-N and Related Meroterpenoids from the Fungus Penicillium sp. SCS-KFD09 Isolated from a Marine Worm, Sipunculus nudus” (J Nat Prod, 2017).
Converted amounts (≈) assume the structure as drawn.

What was measured:
Staphylococcus aureus = assay: Antimicrobial activity against Staphylococcus aureus by XTT assay; format: functional
Influenza A virus = assay: Antiviral activity against Influenza A virus (A/Puerto Rico/8/34(H1N1)) infected in MDCK cells assessed as protection against virus-induced cytopathogenicity after 48 hrs by crystal-violet staining-based assay; format: functional, organism-based; conditions: A/Puerto Rico/8/1934(H1N1)

C/C(=C\Cc1c(O)cc(O)c2c1C[C@@H](C)OC2=O)CCC(O)[C@@]1(C)CC[C@@H](C(C)(C)O)O1 (stereo partly specified)
MIC (Staphylococcus aureus): 32 µg/mL (≈ 71.3 µM)

C[C@@H]1Cc2c3c(c(Cl)c(O)c2C(=O)O1)O[C@@]1(C)[C@@H](O)C[C@H]2C(C)(C)C(=O)C=C[C@]2(C)[C@@H]1C3
IC50 (Influenza A virus): 74 µM

CC(=O)O[C@@H]1c2c3c(cc(O)c2C(=O)O[C@@H]1C)O[C@@]1(C)[C@@H](O)C[C@H]2C(C)(C)C(=O)CC[C@]2(C)[C@@H]1C3
IC50 (Influenza A virus): 58 µM

C[C@@H]1Cc2c3c(cc(O)c2C(=O)O1)O[C@@]1(C)CC[C@H]2C(C)(C)C(=O)CC[C@]2(C)[C@@H]1C3
IC50 (Influenza A virus): 34 µM

NC(=O)c1ncn([C@@H]2O[C@H](CO)[C@@H](O)[C@H]2O)n1 [RIBAVIRIN]
IC50 (Influenza A virus): 103 µM

CN[C@@H]1[C@@H](O)[C@@H](O[C@@H]2[C@@H](O)[C@H](O[C@H]3O[C@H](CN)CC[C@H]3N)[C@@H](N)C[C@H]2N)OC[C@]1(C)O.O=S(=O)(O)O
MIC (Staphylococcus aureus): 4 µg/mL
